How the values were obtained:
Assay type in all cases: physicochemical
[1] = UV-vis absorption, fluorescence emission, absolute fluorescence quantum yield and fluorescence lifetime; conditions: for Δλ, Stokes shift / λem, maximum emission wavelength / τS, fluorescence lifetime: in dichloromethane; for UV-vis absorption maximum in PBS: phosphate-buffered solution (PBS); for molar extinction coefficient: at absorption peak about 710 nm, DCM
Method: First, the UV–vis absorption and fluorescence emission spectra of the series of compounds were measured and analyzed. […] Concurrently, the Stokes shifts of all four compounds were more than 60 nm (Figure 2a,b and Table 1), which could effectively improve the signal-to-noise ratio (SNR) of fluorescence compared to the ordinary TCy7. The fluorescence lifetimes of all four compounds were within 2 ns, indicating no delayed fluorescence generation (Figure 2c and Table 1). […]
Materials and Instrumentation
All the general chemicals used in this paper are purchased from Energy Chemical Co. and Innochem Chemical Co. unless otherwise specified. All solvents were […]
analytically pure. […]
All the other solvents and reagents used in this study were of analytical grade. All the BALB/c mice were purchased from Liaoning […]
III 500 spectrometers. Absorption and emission spectra for all the compounds were achieved on the Agilent Technologies CARY 60 UV -Vis spectrophotometer and VAEIAN CARY Eclipse fluorescence spectrop hotometer (Serial No. FL0812 -M018), […]
respectively. Unless otherwise specified, all spectroscopic tests were performed in a quartz cell (10×10 mm). Fluorescence quantum yield of all the compounds were measured on the HAMAMATSU absolute fluorescence quantum yield spectrometer (Serial No. C11347). Triplet lifetime of compounds were acquired on LP980 laser flash photolysis spectrometer (Edinburgh Instruments, U.K.). The cell confocal laser scanning microscope (CLSM) images were all obtained by using Olympus FV3000 confocal laser scanning microscope. […]
Figure 4, Figure S6 and Figure S7). The spin-orbital coupling (SOC) values between the S1/S1V and T2 were calculated with ORCA 4.13. Hole-Electron analysis was carried […]
ISC rate constants calculation […]
Triplet lifetime measurements
The triplet life of QTCy7-R was measured by LP980 laser flash photolysis spectrometer (Edinburgh Instruments Ltd.) in combination with a Nd:YAG laser (Surelite I-10, Continuum Electro-Optics, Inc.). The oxygen in the sample was removed by aerating nitrogen for 30 min. The samples (5 μM) were excited by a 610 nm laser pulse (1 Hz, 100 mJ per pulse, fwhm ≈ 7 ns) at 300 K. The triplet state decay kinetics were measured at the maximum absorption wavelengths of each compound.
Fluorescence lifetime and femtosecond time-resolved transient absorption spectra […]
The fluorescence lifetimes and femtosecond time-resolved transient absorption spectra of dyes were recorded on a freshly prepared samples using the time-correlated single photon counting (TCSPC) method (PicoQuant PicoHarp 300) at 300 K. The concentration is 10 μM, solvent is DCM.
Hepatoma carcinoma cells (HepG-2 cells), human mammary carcinoma (MCF-7) and mouse breast cancer cells (4T1) were maintained in Dulbecco’s modified Eagle’s

[2] = Oil-water partition coefficient (Log P)
Method: In order to guarantee the preciseness of the supposition, electrostatic potential (ESP) analysis of the molecular surface was conducted to quantify the surface charge distribution.[48] With a unit positive charge, the surface potential of the molecule was mostly positive. As depicted in Figure 7a, most of the positive electrostatic potential regions on the surface of the molecules were located on the benzothiazole groups in all four compounds, while only a small amount of positive electrostatic potential and negative electrostatic potential are distributed on the benzoquinone group and the oxygen atom, respectively. […] On the contrary, QTCy7-Ph preferred a larger effective surface area at the low surface positive potential region (<55 kcal/mol). In addition, the areas of surface electrostatic potential in QTCy7-Me and QTCy7-Ac were maintained in a median (QTCy7-Ac was partly larger than QTCy7-Me) (Figure 7b). The oil–water partition coefficient (Log P) was also taken into account to study cell uptake. According to Log P (Figure 7c), the introduction of phenyl enhanced the lipophilicity of QTCy7-Ph, resulting a good membrane permeability, whereas the introduction of formyl enhanced the hydrophilicity of QTCy7-CHO, which decreased its cellular uptake capacity. […] This explains why only a small amount of QTCy7-CHO adhered on the membrane surface (Figure 7c).

[3] = Singlet oxygen quantum yield by DPBF decay curve method; conditions: for ΦΔ, singlet oxygen quantum yield: methylene blue as standard, 660 nm irradiation
Method: Afterward, the singlet oxygen yields of the series of molecules were preliminarily measured and analyzed by the 1,3-diphenylisobenzofuran (DPBF) decay curve method (Figures 2d,e and S2). […] Meanwhile, in order to exclude the effect of the rigid structure, ΦΔ of a Cy7-like reference molecule (TCy7C) with a rigidified structure but absence of an oxygen atom was measured. The singlet oxygen yield of TCy7C was 2.2%, even lower than that of TCy7 under the same conditions (Figure S3). […]
Photoexcited singlet oxygen production was detected by employed 1,3-diphenylisobenzofuran (DPBF) as the indicator. The absorbance of DPBF at 415 nm was regulated to about 1.0 in DCM. And the samples were irradiated with 660 nm light for various times, then the absorption spectra of different time nodes were recorded.
The singlet oxygen quantum yield (ΦΔ) was calculated by the following equation:
Where “Φ” represent the singlet oxygen quantum yield , “sam” and “std” represent QTCy7-R and MB, respectively. “m” is the slope of the absorbance of DPBF at 415 nm with time, F=1–10-O.D. (O.D. is the absorbance of samples at 660 nm). […]

Q: For `CCN1/C(=C/C=C2\C=C(C=O)C=C(/C=C/c3sc4ccccc4[n+]3CC)C2=O)Sc2ccccc21` [QTCy7-CHO], which “ΦF, absolute fluorescence quantum yield” value [1] is on record?
A: 28.0%

Q: And the “Δλ, Stokes shift” value [1]?
A: 60 nm

Q: What about the “λem, maximum emission wavelength” value [1] of the same compound?
A: 690 nm

Q: And the “τS, fluorescence lifetime” value [1]?
A: 1.82 ns

Q: And the “UV-vis absorption maximum in PBS” value [1]?
A: 552 nm

Q: And the logP [2]?
A: 1.17

Q: What about the “ΦΔ, singlet oxygen quantum yield” value ([3]; in dichloromethane) of the same compound?
A: 0.263

Q: Which “ΦF, absolute fluorescence quantum yield” value [1] does the source give for `CCOC(=O)C1=C/C(=C\C=C2/Sc3ccccc3N2CC)C(=O)C(/C=C/c2sc3ccccc3[n+]2CC)=C1` [QTCy7-Ac] here?
A: 31.4%

Q: What about the “Δλ, Stokes shift” value [1] of the same compound?
A: 67 nm

Q: And the “λem, maximum emission wavelength” value [1]?
A: 703 nm

Q: And the “τS, fluorescence lifetime” value [1]?
A: 1.97 ns

Q: What about the “UV-vis absorption maximum in PBS” value [1] of the same compound?
A: 610 nm

Q: And the logP [2]?
A: 1.41

Q: What about the “ΦΔ, singlet oxygen yield” value ([3]; in dichloromethane, DPBF method) of the same compound?
A: 33.8%

Q: What about the “ΦΔ, singlet oxygen quantum yield” value ([3]; in dichloromethane) of the same compound?
A: 0.338

Q: And the “singlet oxygen yield relative to TCy7” value ([3]; under NIR irradiation)?
A: 13 fold

Q: Which “ΦF, absolute fluorescence quantum yield” value [1] does the source give for `CCN1/C(=C/C=C2\C=C(C)C=C(/C=C/c3sc4ccccc4[n+]3CC)C2=O)Sc2ccccc21` [QTCy7-Me] here?
A: 16.7%

Q: What about the molar extinction coefficient [1] of the same compound?
A: approximately 4 × 10^4

Q: What about the “Δλ, Stokes shift” value [1] of the same compound?
A: 66 nm

Q: And the “λem, maximum emission wavelength” value [1]?
A: 780 nm

Q: What about the “τS, fluorescence lifetime” value [1] of the same compound?
A: 1.70 ns

Q: What about the “UV-vis absorption maximum in PBS” value [1] of the same compound?
A: 701 nm

Q: And the logP [2]?
A: 1.43

Q: And the “ΦΔ, singlet oxygen quantum yield” value ([3]; in dichloromethane)?
A: 0.225

Q: For `CCN1/C(=C/C=C2\C=C(c3ccccc3)C=C(/C=C/c3sc4ccccc4[n+]3CC)C2=O)Sc2ccccc21` [QTCy7-Ph], which “ΦF, absolute fluorescence quantum yield” value [1] is on record?
A: 17.2%

Q: And the molar extinction coefficient [1]?
A: approximately 4 × 10^4

Q: And the “Δλ, Stokes shift” value [1]?
A: 72 nm

Q: What about the “λem, maximum emission wavelength” value [1] of the same compound?
A: 783 nm

Q: What about the “τS, fluorescence lifetime” value [1] of the same compound?
A: 1.90 ns

Q: And the “UV-vis absorption maximum in PBS” value [1]?
A: 613 nm

Q: And the logP [2]?
A: 1.69

Q: And the “ΦΔ, singlet oxygen quantum yield” value ([3]; in dichloromethane)?
A: 0.212

— article PMC10451034, “Highly Efficient Photosensitizers with Molecular Vibrational Torsion for Cancer Photodynamic Therapy” (ACS Central Science, 2023)
